Laboratory results from ChEMBL document CHEMBL1124336, “5-Isoquinolinesulfonamide derivatives. 2. Synthesis and vasodilatory activity of N-(2-aminoethyl)-5-isoquinolinesulfonamide derivatives” (1989).

What was measured:
Canis familiaris [1] = assay: Increasing effect on vertebral blood flow in anesthetized dogs compared to the effect of trapidil; format: functional, Canis lupus familiaris
Canis familiaris [2] = assay: Increasing effect on femoral blood flow in anesthetized dogs compared to the effect of trapidil; format: functional, Canis lupus familiaris, Artery
Canis familiaris [3] = assay: Compound was tested for its hemodynamic effect for percentage change in coronary blood flow in anesthetized Dogs; format: functional, Canis lupus familiaris, Artery
Canis familiaris [4] = assay: Compound was tested for its hemodynamic effect for percentage change in heart rate in anesthetized Dogs; format: functional, Canis lupus familiaris
Canis familiaris [5] = assay: Compound was tested for its hemodynamic effect for percentage change in mean blood pressure in anesthetized Dogs; format: functional, Canis lupus familiaris
Canis familiaris [6] = assay: Compound was tested for its hemodynamic effect for percentage change in vertebral blood flow in anesthetized dogs; format: functional, Canis lupus familiaris

SMILES | Vertebral blood flow (Canis familiaris [1]) | Femoral blood flow (Canis familiaris [2]) | also measured
Cl.NNS(=O)(=O)c1cccc2cnccc12 | >100 |  | 
CN(CCNS(=O)(=O)c1cccc2cnccc12)C1CCCCC1 | 1.7 | 0.83 | 
O=[N+]([O-])c1ccc(CNCCNS(=O)(=O)c2cccc3cnccc23)cc1 | 1.5 | 2.5 | 
CCCCCCCCN(CCN)S(=O)(=O)c1cccc2cnccc12 | 0.92 |  | 
CCCCCCN(CCN)S(=O)(=O)c1cccc2cnccc12 | 0.12 |  | Change (Canis familiaris [3]): 53.6%; Change (Canis familiaris [4]): 2.8%; Change (Canis familiaris [5]): -11.4%; Change (Canis familiaris [6]): 91.4%
CCCCCCN(CCCCCC)CCNS(=O)(=O)c1cccc2cnccc12 | 0.48 | 1.2 | 
O=S(=O)(NCCNC1CCCCC1)c1cccc2cnccc12 | 1.4 |  | 
CN(C)CCNS(=O)(=O)c1cccc2cnccc12 | 1.4 |  | 
CCCCCNCCNS(=O)(=O)c1cccc2cnccc12 | 2.4 | 1 | 
NCCCNS(=O)(=O)c1cccc2cnccc12 | 5.1 | 3.6 | 
CCCCCCCCCCNCCNS(=O)(=O)c1cccc2cnccc12 | 0.49 |  | 
NCCCCCCNS(=O)(=O)c1cccc2cnccc12 | 1.4 | 2.4 | 
CN(CCN)S(=O)(=O)c1cccc2cnccc12 | 1.6 |  | 
O=S(=O)(NCCNCc1ccccc1Cl)c1cccc2cnccc12 | 1.5 | 2.6 | 
O=S(=O)(NCCNCc1ccccc1)c1cccc2cnccc12 | 0.57 |  | 
CCCCCCNCCNS(=O)(=O)c1cccc2cnccc12 | 0.17 | 0.23 | Change (Canis familiaris [3]): 45.7%; Change (Canis familiaris [4]): 3.9%; Change (Canis familiaris [5]): -16.8%; Change (Canis familiaris [6]): 93.7%
O=S(=O)(c1cccc2cnccc12)N(CCNCc1ccccc1)Cc1ccccc1 | 1.8 |  | 
CNCCNS(=O)(=O)c1cccc2cnccc12 | 3.7 | 1.7 | 
CCNCCN(CC)S(=O)(=O)c1cccc2cnccc12 | 0.78 | 1.1 | 

SMILES | Vertebral blood flow (Canis familiaris [1]) | Femoral blood flow (Canis familiaris [2]) | also measured
COc1ccc(CNCCNS(=O)(=O)c2cccc3cnccc23)cc1OC | 4.3 | 3.7 | 
CC(C)N(CCN)S(=O)(=O)c1cccc2cnccc12 | 3.3 |  | 
O=S(=O)(NCCNCc1cccc(Cl)c1)c1cccc2cnccc12 | 0.26 | 0.83 | 
CC(C)N(CCNS(=O)(=O)c1cccc2cnccc12)C(C)C | 2.7 |  | 
CCCCNCCNS(=O)(=O)c1cccc2cnccc12 | 4.6 | 1.3 | 
COc1ccc(CNCCNS(=O)(=O)c2cccc3cnccc23)cc1 | 0.38 | 0.43 | 
CCCCCCCCNCCNS(=O)(=O)c1cccc2cnccc12 | 0.53 |  | 
CCCNCCNS(=O)(=O)c1cccc2cnccc12 | 2.7 | 1.6 | 
O=S(=O)(NCCNCCc1ccccc1)c1cccc2cnccc12 | 0.31 | 0.32 | 
NCCNS(=O)(=O)c1cccc2cnccc12 | 1.8 | 2 | 
NCCCCNS(=O)(=O)c1cccc2cnccc12 | 4.2 | 2.7 | 
CCCCN(CCN)S(=O)(=O)c1cccc2cnccc12 | 0.27 |  | 
NCCN(Cc1ccccc1)S(=O)(=O)c1cccc2cnccc12 | 1.92 |  | 
CCCCCCN(CCC)CCNS(=O)(=O)c1cccc2cnccc12 | 1.7 | 1.9 | 
CNCCN(C)S(=O)(=O)c1cccc2cnccc12 | 1.3 | 1.5 | 
CCNCCNS(=O)(=O)c1cccc2cnccc12 | 4.2 | 2.7 | 
CCN(CCN)S(=O)(=O)c1cccc2cnccc12 | 1.3 |  | 
O=S(=O)(NCCNCc1ccc(Cl)cc1)c1cccc2cnccc12 | 0.25 | 1 | 
COc1ccc([C@@H]2Sc3ccccc3N(CCN(C)C)C(=O)[C@@H]2OC(C)=O)cc1 [DILTIAZEM] | 0.15 | 0.21 | Change (Canis familiaris [3]): 91.3%; Change (Canis familiaris [4]): -8%; Change (Canis familiaris [5]): -28.9%; Change (Canis familiaris [6]): 180%
